Assay results as given in PMC4971072, “Chemically Homogenous Compounds with Antagonistic Properties at All α1-Adrenoceptor Subtypes but not β1-Adrenoceptor Attenuate Adrenaline-Induced Arrhythmia in Rats” (Frontiers in Pharmacology, 2016).
Structures can show the parent of a compound that is named as a salt. Marks after values point to notes of the source that are not given here.

Key:
[1] = target: α1-adrenoceptor; experiment: α1-adrenoceptor radioligand binding assay ([3H]-prazosin, rat cerebral cortex); conditions: read-out: Adrenergic receptors Ki α1
Experimental: The α1- and β1-adrenoceptor radioligand binding assay was performed on rat cerebral cortex. […] The cell pellet was resuspended in the Tris–HCl buffer and centrifuged again. Radioligand binding assays were performed in plates (MultiScreen/Millipore). […] The incubation was terminated by rapid filtration through glass fiber filters (Whatman GF/C) using a vacuum manifold (Millipore). The filters were then washed twice with the assay buffer and placed in scintillation vials with a liquid scintillation cocktail. […] All the assays were made in duplicate and the inhibitory constants (Ki) were estimated.
LO–labeled ligand concentration, KD–dissociation constant of labeled ligand

[2] = target: T1, α1B-adrenoceptors (Mus musculus, UniProt P97717); experiment: Functional bioassay, isolated mouse spleen, noradrenaline contraction; type: biochemical; conditions: noradrenaline as agonist
T1 construct: The spleen was removed from male mice; from tissue; host or cells: isolated mouse spleen
T1 sequence (P97717 1-514): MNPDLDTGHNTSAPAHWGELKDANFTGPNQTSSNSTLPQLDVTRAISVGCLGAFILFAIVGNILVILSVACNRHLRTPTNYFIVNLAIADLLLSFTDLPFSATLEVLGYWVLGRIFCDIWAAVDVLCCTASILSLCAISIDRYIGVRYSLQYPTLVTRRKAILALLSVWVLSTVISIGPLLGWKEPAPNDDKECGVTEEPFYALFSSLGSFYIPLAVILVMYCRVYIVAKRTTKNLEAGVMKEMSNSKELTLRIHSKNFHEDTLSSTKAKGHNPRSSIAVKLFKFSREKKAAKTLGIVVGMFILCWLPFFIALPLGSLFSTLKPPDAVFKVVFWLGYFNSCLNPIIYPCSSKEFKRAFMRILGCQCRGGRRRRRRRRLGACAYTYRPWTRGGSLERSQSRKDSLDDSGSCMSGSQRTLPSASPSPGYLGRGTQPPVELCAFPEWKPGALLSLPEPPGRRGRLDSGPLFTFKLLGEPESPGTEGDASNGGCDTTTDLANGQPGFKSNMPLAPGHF

[3] = test system: normal ECG in rats; experiment: The effect on normal electrocardiogram in rats; type: in vivo, rat; conditions: anesthetized rats
Experimental: The experiment was carried out to exclude the influence of tested compounds on normal ECG. […] The influence on QRS complex, PQ interval, heart rate (RR), and QTc interval was determined.

[4] = test system: adrenaline-induced arrhythmia in rats; experiment: Therapeutic antiarrhythmic activity in adrenaline-induced arrhythmia; type: in vivo, rat; conditions: i.v. at ED84 at the peak of adrenaline-induced arrhythmia (20 μg/kg)
Experimental: The ECG was recorded constantly for 5 min as well as in the 10th and 15th min of the experiment.

[5] = test system: blood pressure in normotensive rats; experiment: Influence on blood pressure in normotensive rats; type: in vivo, rat; set-up: Systolic pressure / Diastolic pressure: unit not given beside the values; conditions: for Diastolic pressure / Systolic pressure: anesthetized normotensive rats
Experimental: The tested compounds were administered i.p. after 15 min of stabilization period. The compounds were administered at the dose 10 mg/kg.

[6] = i.p. at ED84, 0 min (initial values)
[7] = lowest hypotensive dose i.p., 5 min
[8] = lowest hypotensive dose i.p., 10 min
[9] = lowest hypotensive dose i.p., 20 min
[10] = lowest hypotensive dose i.p., 30 min
[11] = lowest hypotensive dose i.p., 40 min
[12] = lowest hypotensive dose i.p., 50 min
[13] = lowest hypotensive dose i.p., 60 min
[14] = lowest hypotensive dose i.p., Control (before administration)
[15] = normotensive rats, lowest hypotensive dose i.p., period of significant effect

COc1ccccc1N1CCN(CCCOc2cc(C)ccc2Cl)CC1 [HBK-16, 1N-[3-(2-chloro-5-methylphenoxy)propyl]-4N-(2-methoxyphenyl)piperazine hydrochloride]
Ki [1]: 5 nM | Schild slope ± S.E.M., α1B [2]: 1.03 ± 0.12 | Kb ([2]; read-out: pA2 ± S.E.M., α1B (converted)): 6.17 nM | influence on ECG parameters (PQ interval, QRS complex, QTc interval) ([3]; i.p. at ED84): did not influence PQ interval, QRS complex or QTc interval | reduction of heart rate ([3]; i.p. at ED84, over the period of significant effect vs. initial values): 11−13% | Beats/min (ECG) [3, 6]: 329.6 ± 9.8 Beats/min | PQ (ECG) [3, 6]: 64.4 ± 1.1 ms | QRS (ECG) [3, 6]: 21.7 ± 2.2 ms | QT (ECG) [3, 6]: 51.4 ± 3.5 ms | QTc (ECG, Bazett) [3, 6]: 120.5 ± 8.7 ms | Beats/min (ECG) ([3]; i.p. at ED84, 5 min): 331.4 ± 12.5 Beats/min | PQ (ECG) ([3]; i.p. at ED84, 5 min): 63.7 ± 1.1 ms | QRS (ECG) ([3]; i.p. at ED84, 5 min): 21.7 ± 2.2 ms | QT (ECG) ([3]; i.p. at ED84, 5 min): 51.2 ± 3.5 ms | QTc (ECG, Bazett) ([3]; i.p. at ED84, 5 min): 120.7 ± 9.7 ms | Beats/min (ECG) ([3]; i.p. at ED84, 10 min): 330.1 ± 12.4 Beats/min | PQ (ECG) ([3]; i.p. at ED84, 10 min): 63.6 ± 0.9 ms | QRS (ECG) ([3]; i.p. at ED84, 10 min): 21.7 ± 2.2 ms | QT (ECG) ([3]; i.p. at ED84, 10 min): 51.2 ± 3.3 ms | QTc (ECG, Bazett) ([3]; i.p. at ED84, 10 min): 120.2 ± 8.8 ms | Beats/min (ECG) ([3]; i.p. at ED84, 15 min): 319.4 ± 10.3 Beats/min | PQ (ECG) ([3]; i.p. at ED84, 15 min): 63.9 ± 1.1 ms | QRS (ECG) ([3]; i.p. at ED84, 15 min): 21.7 ± 2.2 ms | QT (ECG) ([3]; i.p. at ED84, 15 min): 50.1 ± 3.6 ms | QTc (ECG, Bazett) ([3]; i.p. at ED84, 15 min): 115.8 ± 9.6 ms | Beats/min (ECG) ([3]; i.p. at ED84, 20 min): 310.6 ± 9.8 Beats/min | PQ (ECG) ([3]; i.p. at ED84, 20 min): 65.1 ± 1.2 ms | QRS (ECG) ([3]; i.p. at ED84, 20 min): 21.7 ± 2.2 ms | QT (ECG) ([3]; i.p. at ED84, 20 min): 51.4 ± 3.1 ms | QTc (ECG, Bazett) ([3]; i.p. at ED84, 20 min): 117.3 ± 8.7 ms | Beats/min (ECG) ([3]; i.p. at ED84, 30 min): 302.8 ± 11.0 Beats/min | PQ (ECG) ([3]; i.p. at ED84, 30 min): 64.4 ± 1.1 ms | QRS (ECG) ([3]; i.p. at ED84, 30 min): 21.7 ± 2.2 ms | QT (ECG) ([3]; i.p. at ED84, 30 min): 52.7 ± 3.7 ms | QTc (ECG, Bazett) ([3]; i.p. at ED84, 30 min): 119.0 ± 10.3 ms | Beats/min (ECG) ([3]; i.p. at ED84, 40 min): 294.1 ± 12.2^a Beats/min | PQ (ECG) ([3]; i.p. at ED84, 40 min): 65.9 ± 0.8 ms | QRS (ECG) ([3]; i.p. at ED84, 40 min): 21.7 ± 2.2 ms | QT (ECG) ([3]; i.p. at ED84, 40 min): 53.5 ± 2.8 ms | QTc (ECG, Bazett) ([3]; i.p. at ED84, 40 min): 118.9 ± 8.4 ms | Beats/min (ECG) ([3]; i.p. at ED84, 50 min): 291.4 ± 13.0^b Beats/min | PQ (ECG) ([3]; i.p. at ED84, 50 min): 67.3 ± 1.6 ms | QRS (ECG) ([3]; i.p. at ED84, 50 min): 22.0 ± 2.1 ms | QT (ECG) ([3]; i.p. at ED84, 50 min): 54.7 ± 2.8 ms | QTc (ECG, Bazett) ([3]; i.p. at ED84, 50 min): 121.1 ± 8.7 ms | Beats/min (ECG) ([3]; i.p. at ED84, 60 min): 288.0 ± 13.8^b Beats/min | PQ (ECG) ([3]; i.p. at ED84, 60 min): 68.2 ± 0.9 ms | QRS (ECG) ([3]; i.p. at ED84, 60 min): 22.3 ± 2.0 ms | QT (ECG) ([3]; i.p. at ED84, 60 min): 55.5 ± 2.4 ms | QTc (ECG, Bazett) ([3]; i.p. at ED84, 60 min): 122.0 ± 7.7 ms | therapeutic antiarrhythmic activity (premature ventricular contractions) [4]: restored normal heart rhythm | Diastolic pressure [5, 7]: 95.0 ± 5.1 | Systolic pressure [5, 7]: 123.2 ± 3.3 | Diastolic pressure [5, 8]: 93.7 ± 5.1 | Systolic pressure [5, 8]: 121.2 ± 3.2 | Diastolic pressure [5, 9]: 91.3 ± 5.0^b | Systolic pressure [5, 9]: 114.8 ± 2.0^b | Diastolic pressure [5, 10]: 89.8 ± 5.2^a | Systolic pressure [5, 10]: 113.0 ± 2.4^c | Diastolic pressure [5, 11]: 87.7 ± 4.7^b | Systolic pressure [5, 11]: 110.3 ± 2.1^c | Diastolic pressure [5, 12]: 88.0 ± 4.3^c | Systolic pressure [5, 12]: 110.8 ± 2.0^b | Diastolic pressure [5, 13]: 87.7 ± 4.6^b | Systolic pressure [5, 13]: 110.7 ± 1.9^c | Diastolic pressure [5, 14]: 97.0 ± 4.3 | Systolic pressure [5, 14]: 124.7 ± 3.1 | lowest hypotensive dose ([5]; normotensive rats, lowest dose significantly lowering systolic and diastolic blood pressure): 0.1 mg/kg | reduction of diastolic blood pressure [5, 15]: 6−10% | reduction of systolic blood pressure [5, 15]: 8−11%
